Read-outs that look alike come from different tables or passages of the source.
Tests used:
[1] = tested on: monoamine oxidase; assay: PET in baboons, double injection with intervening high dose of unlabeled compound; assay type: in vivo; details: baboon pretreated with L-deprenyl, some brain regions
[2] = Integrated plasma activity for the 30-minute period after tracer injection; assay type: in vivo, human; details: 30-minute period after injection
Excerpt: Integrated plasma activity
for the 30-minute time period after injection is also presented.

[3] = biological target: T1, MAO A (Mus musculus, UniProt Q64133); details: for Effect of cross pretreatment on tracer distribution: mice pretreated with unlabeled L-deprenyl 10 mg/kg i.p. one hour before tracer
T1 sequence (Q64133 1-526): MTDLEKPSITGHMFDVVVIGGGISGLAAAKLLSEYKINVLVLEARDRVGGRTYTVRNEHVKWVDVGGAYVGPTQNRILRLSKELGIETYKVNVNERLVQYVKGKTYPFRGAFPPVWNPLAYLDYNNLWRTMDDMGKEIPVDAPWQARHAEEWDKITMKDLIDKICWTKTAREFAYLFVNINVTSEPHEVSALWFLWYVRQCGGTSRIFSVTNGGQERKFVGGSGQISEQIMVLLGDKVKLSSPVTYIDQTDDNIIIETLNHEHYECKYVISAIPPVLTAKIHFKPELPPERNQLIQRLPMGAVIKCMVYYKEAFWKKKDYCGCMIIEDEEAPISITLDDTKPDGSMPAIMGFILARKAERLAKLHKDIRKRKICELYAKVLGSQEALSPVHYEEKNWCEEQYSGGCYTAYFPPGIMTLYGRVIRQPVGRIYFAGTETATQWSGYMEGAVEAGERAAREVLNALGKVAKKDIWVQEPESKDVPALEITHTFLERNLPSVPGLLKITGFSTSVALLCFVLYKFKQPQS
Method: Organs were rapidly removed, blotted free of blood, placed in preweighed counting vials, and counted, along with injection standards, in a sodium iodide well counter.
For the determination of protein binding, freshly excised brains were minced in preweighed centrifuge tubes containing 2 ml 0.4% HClO4 […], weighed, counted, diluted with 1 ml HClO4 and 1 ml methanol, and homogenized by ultrasonication. After centrifugation and decantation, the pellets were resuspended in 3 ml methanol, sonicated, and recentrifuged. The combined supernatants and pellet were counted in a sodium iodide well counter. […] Because of the short half-life of C-11, corrections for the decay of the isotope were calculated to a standard time (end of cyclotron bombardment) for all data.
For pretreatment experiments, mice were given intraperitoneal injections of unlabeled clorgyline or L-deprenyl (10 mg/kg) one hour before the administration of the [^11 C]-tracer.

[4] = study 5, subject receiving phenelzine plus amphetamine

SMILES	Reduction of brain radioactivity due to tracer after pretreatment [1] [%]	Integrated plasma activity ([2]; study 1, normal volunteer) [nCi ml min]	Integrated plasma activity ([2]; study 2, normal volunteer) [nCi ml min]	Integrated plasma activity ([2]; study 3, normal volunteer) [nCi ml min]	Integrated plasma activity ([2]; study 4, normal volunteer) [nCi ml min]	Integrated plasma activity [2, 4] [nCi ml min]	Effect of cross pretreatment on tracer distribution [3]	Effect of cross pretreatment on tracer distribution ([3]; listed as [^11 C]Clorgyline)	Brain uptake compared with the other tracer ([3]; mouse brain, control and pretreated mice)
C#CCN([11CH3])[C@H](C)Cc1ccccc1 [[^11 C]-L-deprenyl]	≤ 80	1818	2295	1018	1618	2776	–	–	–
C#CCN([11CH3])CCCOc1ccc(Cl)cc1Cl [[^11 C]clorgyline]	–	2329	3206	3260	3611	3965	did not significantly alter from control	no effect	slight but consistently higher uptake than L-deprenyl
